Test results published in patent publication US9739767B2, “Method of screening for plant defense activators, plant defense activators, and method of enhancing immune response” (TOKYO UNIVERSITY OF SCIENCE FOUNDATION, priority 2010, dated 2017).

B1: cryptogein (protein, UniProt P15570 21-118, looked up)
Beta-elicitin cryptogein: TACTATQQTAAYKTLVSILSDASFNQCSTDSGYSMLTAKALPTTAQYKLMCASTACNTMIKKIVTLNPPNCDLTVPTSGLVLNVYSYANGFSNKCSSL
notes: an elicitin derived from oomycete, Phytophthora cryptogea; trigger material (elicitor)

Columns and labels:
[1] = system: salicylic acid-dependent defense pathway and jasmonic acid-dependent defense pathway; experiment: Defense gene expression (PR1, PDF1.2) in Arabidopsis seedlings, real-time RT-PCR; type: in vivo, Arabidopsis thaliana; settings: Arabidopsis seedlings on MS plates containing compound for 3 or 6 days (FIG. 2)
Description: (§1) Total RNA was isolated from plant cells using Trizol (Invitrogen, Carlsbad, Calif., USA) reagent in accordance with the manufacturer's protocol and quantified using a spectrophotometer. First-strand cDNA was synthesized from 3 μg total RNA with an oligo-dT primer and reverse transcriptase.
(§2) Real-time PCR was performed using an ABI PRISM 7300 sequence detection system (Applied Biosystems, Foster City, Calif., USA) with SYBR Green real-time PCR Master Mix (TOYOBO, Osaka, Japan) and the gene-specific primers. PCR amplification was performed with an initial denaturation at 95° C. for 10 min followed by 40 cycles of incubations at 95° C. for 15 s, 60° C. for 15 s, and 72° C. for 45 s. Relative mRNA abundances were calculated using the comparative Ct method. Actin or tubulin was used as an internal control. The following primers were used in the experiment.
Arabidopsis seedlings were grown on MS plate for 12 days and then the seedlings were transferred to MS plates containing chemical compounds. After grown for 3 or 6 days, the samples for RNA extraction were collected.

[2] = system: innate immunity in tobacco plant; experiment: Innate immunity gene expression (PR1a, PR1b) in tobacco seedlings after cryptogein; type: in vivo, Nicotiana tabacum; settings: 6 days on compound, cryptogein 2000 nM, 0, 1 and 24 h (FIG. 4)
Description: as §1, §2
Tobacco seedlings were grown on MS plate for 7 days and then the seedlings were transferred to MS plates containing chemical compounds. After grown for 6 days, cryptogein (2000 nM) was added to the medium and the samples for RNA extraction were collected at the indicated time (0, 1 and 24 h).

innate immunity in rice = experiment: Innate immunity gene expression (PBZ1, WRKY45) in rice seedlings after N-acetylchitoheptaose; type: in vivo, Oryza sativa; settings: 2 days on compound, [GlcNAc]7 10 μM, observed 24 hours after elicitor (FIG. 5)
[3] = system: Pseudomonas syringae pv tomato (Pst) DC3000; experiment: Pathogen infection assay in Arabidopsis thaliana (Col-0); type: in vivo; settings: Arabidopsis thaliana (Col-0) irrigated with compound for 5 days, dip inoculation with Pst DC3000, 3 days (FIG. 3)
Description: Arabidopsis thaliana (Col-0) were grown in sterilized potting soil (Kureha) in plastic pots (5 cm×5 cm×5 cm) inside a growth chamber under a 16 h-8 h light-dark regimen at 22° C. with 60% humidity. After grown for 3 weeks, plants were irrigated with chemical compounds for 5 days.
Pseudomonas syringae pv tomato (Pst) DC3000 was cultured in nutrient broth medium (Eiken Chemical) for 24 h at 28° C., and a bacterial suspension was prepared in 10 mM MgCl2 (2×10^5 colony-forming units per mL). Challenge inoculation was performed by dipping the plants in bacterial solution. After incubation for 3 days at 22° C., the leaves were harvested from the inoculated plants. Three to four leaves from different plants were combined, weighed, and then homogenized in 10 mM MgCl2; the homogenate was then plated on nutrient broth agar containing rifampicin (50 mg/L) at appropriate dilutions. After incubation for 2 days at 28° C., the number of rifampicin-resistant bacterial colonies was counted. More than six homogenized samples were prepared for each experiment.

OsWRKY45 = settings: rice; cited from earlier work
tobacco leaves = experiment: Salicylic acid accumulation in tobacco leaves after cryptogein; type: in vivo; settings: tobacco leaves treated with 2,000 nM cryptogein; range from several thousand, varying with conditions
Description: In the case of tobacco BY-2 cells compared to normal tobacco plant, the salicylic acid accumulation level of untreated tobacco BY-2 cells is from 10 to 20 ng/g (fresh weight), while the salicylic acid accumulation level of untreated tobacco leaves is several hundred ng/g (fresh weight). When treated with 2,000 nM cryptogein, the salicylic acid accumulation level of treated tobacco BY-2 cells increases to a level of approximately from 100 to 150 ng/g (fresh weight), while the salicylic acid accumulation level of treated tobacco leaves increases to, though varying depending on conditions, a level in the range of from several thousand ng/g (fresh weight) to 10,000 ng/g (fresh weight).

Molecule	activation of salicylic acid-dependent and jasmonic acid-dependent defense pathways [1]	enhancement of immune response after treatment with cryptogein [2]	also measured
O=c1cc(N2CCNCC2)oc2c(-c3ccccc3)cccc12 [Compound 2, LY303511]	activated both the salicylic acid-dependent defense pathway and the jasmonic acid-dependent defense pathway	enhanced an immune response	
Cn1cnc(=N)c2nc[nH]c21 [Compound 3, 3MA]	activated both the salicylic acid-dependent defense pathway and the jasmonic acid-dependent defense pathway	enhanced an immune response	enhancement of immune response after elicitor application (innate immunity in rice): enhanced an immune response; resistance to a plant disease [3]: effective in enhancing resistance to a plant disease
c1ccc2snnc2c1 [BTH, benzothiadiazole]			time to upregulation of OsWRKY45 after treatment (OsWRKY45): ≤ 3 h
B1			salicylic acid accumulation level (tobacco leaves): ≤ 10,000 ng/g (fresh weight)
